Laboratory results: PMC6413024, “Multimerization Increases Tumor Enrichment of Peptide–Photosensitizer Conjugates” (Molecules, 2019)

What was measured:
[1] = Singlet oxygen quantum yield in DMSO; type: physicochemical; settings: DPBF as the quencher and Pyro as the reference
Method: (§1) The UV–Vis absorption spectra and fluorescence spectra of the synthesized conjugates of Pyro-MonoRGD, Pyro-DiRGD, Pyro-TriRGD, and free Pyro were measured in DMSO. Absorption spectra were recorded from 300 to 800 nm. Fluorescence emission and excitation spectra were recorded from 550 to 800 nm upon excitation at approximately 668 nm and emission at 672–673 nm using a Hitachi model F-4500 FL spectrophotometer (Tokyo, Japan). The singlet oxygen quantum yields (ΦΔ) of the conjugates were measured in DMSO using DPBF as the quencher and Pyro as the reference.

[2] = cited from earlier work
Description: (§2) Pyro is a very promising photosensitizer with ideal photoactivity properties, including a high extinction coefficient (3.79 × 10^4 L mol^−1 cm^−1) and a high singlet oxygen quantum yield (over 50%). […] Solving the tumor enrichment problem is very important for its clinical application. Here, to further increase the affinity of RGD peptide-coupled Pyro conjugates to the receptor αvβ3 integrin, we synthesized multimeric RGD-coupled Pyro conjugates to increase the affinity via multivalent and cluster effects, thereby improving the upt ...

[3] = tested on: tumors in a mouse model; settings: general statement on Pyro; no reference given at the statement; cited from earlier work
Description: as §2

[4] = UV–Vis absorption and fluorescence spectra in DMSO; type: physicochemical; settings: for λmax: UV–Vis absorption in DMSO, Q-band, recorded from 300 to 800 nm; for λem: fluorescence emission in DMSO, Hitachi F-4500, 2.0 µM, excitation at approximately 668 nm; for Stokes Shift: in DMSO
Method: as §1

[5] = tested on: αvβ3 integrin receptor; settings: compared with antibody molecules; no reference given at the statement; cited from earlier work
Description: However, compared with antibody molecules, small molecule ligands have a much weaker affinity to their receptors, which makes their tumor enrichment not always ideal. In our former work, we coupled a very promising photosensitizer, pyropheophorbide-a (Pyro), which has ideal photosensitizer properties, with a small molecule tumor homing ligand—cyclo(-RGDfK-)—to prepare a tumor-targeted conjugate. The cyclic peptide cyclo(-RGDfK-), which contains a conformationally restrained RGD sequence, has been often used for targeting tumor imaging and/or therapeutic agents as a high affinity ligand ...

[6] = molecular target: human isolated αvβ3 integrin receptors (ITGAV&ITGB3 heterodimer) (Homo sapiens, UniProt P05106+P06756); assay: Receptor binding assay: competitive inhibition of biotinylated vitronectin binding to αvβ3 integrin; settings: for IC50: biotinylated vitronectin 2.0 μg/mL, integrin 2.0 μg/mL in PBS pH 7.4, 4 °C overnight, test compounds 10^−3 to 10^−11 M, 3 h, 37 °C shaker, streptavidin–HRP/TMB, absorbance 450 nm, nonlinear regression GraphPad Prism 5.0, means ± SD of triplicate determinations
Method: Human integrin αvβ3 (ITGAV&ITGB3) heterodimer protein was diluted to 2.0 μg/mL in PBS buffer (pH 7.4) and was then added to a 96-well plate (100 μL/well) and incubated overnight at 4 °C. The plate was blocked with 10% milk solution for an additional 2 h in a 37 °C shaker, followed by a 3 h incubation in the 37 °C shaker with various concentrations (10^−3 to 10^−11 M) of test compounds in the presence of biotinylated vitronectin (2.0 μg/mL). After washing, the plates were incubated for 1 h in the 37 °C shaker with streptavidin–HRP and then washed again, followed by 30 min of incubation with 100 μL/well TMB single-component substrate solution before stopping the reaction with the addition of 100 μL/well 2.0 N H2SO4. The absorbance at 450 nm was read on a microplate reader. Each data point represents the average of the triplicate wells, and data analysis was performed using nonlinear regression analysis with GraphPad Prism 5.0 software (GraphPad Software, Inc., San Diego, CA, USA.).

[7] = tested on: U87-MG tumor; type: in vivo, Balb/c nude mice; human U87-MG cells; settings: 50 nmol/mouse i.v.; mice euthanized 2 h postinjection; vs the other two conjugates; triplicates
Method: To further verify the tumor targeting ability of these conjugates, the mice were euthanized 2 h postinjection, and their organs were collected for imaging. As shown in Figure 3B (heart, liver, spleen, lungs, and tumor from left to right), when the valence of the conjugates increased, the fluorescence signal in the tumor region increased.
(§3) Human U87-MG cells (4 × 10^6 cells/mouse) were subcutaneously inoculated on the axilla of female Balb/c nude mice. When the tumors grew to 200 mm^3, the mice were divided into three groups with each group containing three mice. The mice were then intravenously injected with 50 nmol/mouse of Pyro-MonoRGD, Pyro-DiRGD, and Pyro-TriRGD, respectively. In vivo fluorescence analysis was performed before and after the injection at various time points using the IVIS Lumina imaging system (IVIS Lumina II, Xenogen, USA) with a Cy5.5 filter (excitation: 615–665 nm, emission: 695–770 nm). Alternatively, the mice were euthanized at 2 h postinjection, and major organs, including the heart, liver, spleen, lungs, kidneys, and muscles, as well as the tumor, were collected; fluorescence images were then acquired.

[8] = tested on: U87-MG tumor; type: in vivo, Balb/c nude mice; human U87-MG cells
Description: To examine the tumor enrichment of these conjugates in vivo, we prepared a xenograft tumor model by subcutaneously inoculating mice with U87-MG tumor cells ([…]) on the axilla. U87-MG cells have high expression levels of the αvβ3 integrin receptor. When the tumors grew to approximately 200 mm^3 in volume, the conjugates (50 nmol per mouse) were intravenously injected into the mice via the tail vein. The fluorescence signal and intensity distribution were continuously monitored using an in vivo fluorescence imaging system (IVIS Lumina II, Xenogen, Alameda, CA, USA). […] However, relatively weak fluorescence signals in the tumor site could be detected. […] The increased water hydrophilicity of the divalent and trivalent conjugates may contribute to the reduction in the liver accumulation.
as §3, with “When the tumors grew to 200 mm^3, the mice were divided into three groups with each group containing three mice. The mice were then intravenously injected with 50 nmol/mouse of Pyro-MonoRGD, Pyro-DiRGD, and Pyro-TriRGD, respectively.” left out

C=Cc1c(C)c2cc3nc(c4c5[nH]c(cc6nc(cc1[nH]2)C(C)=C6CC)c(C)c5C(=O)C4)[C@@H](CCC(=O)O)[C@@H]3C [Pyro, pyropheophorbide-a, reference compound]
singlet oxygen quantum yield ΦΔ [1]: 0.52 | extinction coefficient [2]: 37900 L/mol/cm | singlet oxygen quantum yield [2]: over 50% | tumor localization ability [3]: very limited tumor localization ability | λmax [4]: 668 nm | λem [4]: 673 nm | Stokes Shift [4]: 5 nm

cyclo(-RGDfK-)
affinity to αvβ3 integrin receptor [5]: only has a moderate affinity to the αvβ3 integrin receptor

C=Cc1c(C)c2cc3nc(c4c5[nH]c(cc6nc(cc1[nH]2)C(C)=C6CC)c(C)c5C(=O)C4)[C@@H](CCC(=O)NCCCOCCOCCOCCCNC(=O)C[C@@H]1NC(=O)[C@@H](Cc2ccccc2)NC(=O)[C@H](CC(=O)O)NC(=O)CNC(=O)[C@H](CCCNC(=N)N)NC1=O)[C@@H]3C [Pyro-MonoRGD]
IC50 [6]: 951 ± 39.6 nM

C=Cc1c(C)c2cc3nc(c4c5[nH]c(cc6nc(cc1[nH]2)C(C)=C6CC)c(C)c5C(=O)C4)[C@@H](CCC(=O)NC(COCCC(=O)NCCCOCCOCCOCCCNC(=O)C[C@@H]1NC(=O)[C@@H](Cc2ccccc2)NC(=O)[C@H](CC(=O)O)NC(=O)CNC(=O)[C@H](CCCNC(=N)N)NC1=O)COCCC(=O)NCCCOCCOCCOCCCNC(=O)C[C@@H]1NC(=O)[C@@H](Cc2ccccc2)NC(=O)[C@H](CC(=O)O)NC(=O)CNC(=O)[C@H](CCCNC(=N)N)NC1=O)[C@@H]3C (stereo partly drawn) [Pyro-DiRGD]
IC50 [6]: 313 ± 23.1 nM | singlet oxygen quantum yield ΦΔ [1]: 0.47 | λmax [4]: 668 nm | λem [4]: 673 nm | Stokes Shift [4]: 5 nm

C=Cc1c(C)c2cc3nc(c4c5[nH]c(cc6nc(cc1[nH]2)C(C)=C6CC)c(C)c5C(=O)C4)[C@@H](CCC(=O)NC(COCCC(=O)NCCCOCCOCCOCCCNC(=O)C[C@@H]1NC(=O)[C@@H](Cc2ccccc2)NC(=O)[C@H](CC(=O)O)NC(=O)CNC(=O)[C@H](CCCNC(=N)N)NC1=O)(COCCC(=O)NCCCOCCOCCOCCCNC(=O)C[C@@H]1NC(=O)[C@@H](Cc2ccccc2)NC(=O)[C@H](CC(=O)O)NC(=O)CNC(=O)[C@H](CCCNC(=N)N)NC1=O)COCCC(=O)NCCCOCCOCCOCCCNC(=O)C[C@@H]1NC(=O)[C@@H](Cc2ccccc2)NC(=O)[C@H](CC(=O)O)NC(=O)CNC(=O)[C@H](CCCNC(=N)N)NC1=O)[C@@H]3C (stereo partly drawn) [Pyro-TriRGD]
fluorescence intensity in excised tumor, 2 h postinjection [7]: the highest fluorescence intensity at the tumor site | IC50 [6]: 43.8 ± 8.2 nM | binding to integrin αvβ3, fold better than Pyro-DiRGD ([6]; ratio vs divalent Pyro-DiRGD): 7 -fold | binding to integrin αvβ3, fold better than Pyro-MonoRGD ([6]; ratio vs monovalent Pyro-MonoRGD): 20 -fold | singlet oxygen quantum yield ΦΔ [1]: 0.48 | λmax [4]: 668 nm | λem [4]: 673 nm | Stokes Shift [4]: 5 nm | tumor accumulation, 2–6 h postinjection ([8]; 50 nmol/mouse i.v., 2–6 h postinjection): excellent tumor accumulation at 2–6 h postinjection | tumor enrichment, overall comparison ([8]; compared with the other two conjugates): had the best tumor enrichment compared with the other two conjugates
